{
  "source": "patent US20250353827A1",
  "about": "“INDOLINE DERIVATIVES AS SEROTONERGIC AGENTS USEFUL FOR THE TREATMENT OF DISORDERS RELATED THERETO” (MINDSET PHARMA INC., priority 2022, published 2025)",
  "key": {"[1]": {"molecular_target": "T1, human 5-HT2A (h5-HT2A) receptor (Homo sapiens, UniProt P28223)", "T1 construct": "expressed in transfected cells; cultured under G418 and hygromycin B selection", "T1 sequence (P28223 whole entry)": "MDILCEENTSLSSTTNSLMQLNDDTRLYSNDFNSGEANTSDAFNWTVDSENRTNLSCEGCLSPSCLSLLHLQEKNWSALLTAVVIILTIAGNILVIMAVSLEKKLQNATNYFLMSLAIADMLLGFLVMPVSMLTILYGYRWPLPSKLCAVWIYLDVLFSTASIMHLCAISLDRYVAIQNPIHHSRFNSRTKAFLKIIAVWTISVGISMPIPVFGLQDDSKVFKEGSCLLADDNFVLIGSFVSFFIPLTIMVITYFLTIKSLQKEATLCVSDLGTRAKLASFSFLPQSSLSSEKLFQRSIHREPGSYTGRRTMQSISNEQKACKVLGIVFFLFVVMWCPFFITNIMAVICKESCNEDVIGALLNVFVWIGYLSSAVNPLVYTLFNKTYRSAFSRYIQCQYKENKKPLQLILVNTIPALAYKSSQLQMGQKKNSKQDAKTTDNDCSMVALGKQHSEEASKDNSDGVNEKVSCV", "test": "FLIPR assay, human 5-HT2A receptor under agonist mode", "format": "cell-based", "conditions": "for RFU@10 μM: 5-HT2A (FLIPR), RFU=Fmax−Fmin", "protocol": "I. Assessment of the Effect of Exemplary Compounds of Formula I Targeting on Human 5-HT2A (h5-HT2A) Receptor Under Agonist Mode\n• 1. Cells were cultured in cell culture medium (DMEM containing 10% FBS, 1×penicillin-streptomycin 300 μg/ml G418 and 100 μg/ml hygromycin B) at 37° C., 5% (v/v) CO2. • 2. One day before the assays, the cells were detached using TrypLE™ Express and cells were counted using cell counter. Only cells with >85% viability were used for the assay. • 3. 20000 cells/well were seeded in 30 μl/well culture medium to a 384-well cell plate and cells were incubated overnight at 37° C., 5% (v/v) CO2. • 4. On the assay day, 2×dye solution was prepared following the manual of the FLIPR® Calcium 6 Assay Kit: i. The dye was diluted with assay buffer (20 mM HEPES in 1× HBSS, PH7.4); ii. Probenecid was added to the final concentration of 5 mM; iii. Vortex vigorously for 1-2 minutes. • 5. Medium was removed from cell plate by flicking the cell plate on towel papers. • 6. 10 μl of assay buffer and 10 μl of 2×dye solution was added to each well of the cell plate. • 7. The cell plate was placed on plate shaker, the plate was agitated at 600 rpm for 2 minutes. The plate was incubated at 37° C. for 2 hours followed by additional 15-minute incubation at 25° C. • 8. 3×compound in assay buffer was prepared: a. Reference compounds were diluted to required concentration with DMSO. The compounds were added to a 384-well compound plate; b. Serial dilutions were performed; c. 10 mM test compounds were added to the compound plate, and 3-fold serial dilutions were performed. d. Transfer 60 nl/well of compounds from source plate to a 384-well compound plate (Corning, 3657) by using an Echo; e. Add 20 μl/well assay buffer to the compound plate; f. Mix the plate on plate shaker for 2 mins; • 9. The cell plate, compound plate and tips were put into FLIPR, 10 μl of 3× compound was transferred to the cell plate per well with FLIPR.\n• i. The normalized fluorescence reading (RFU) was calculated as shown below, where Fmax and Fmin stand for maximum and minimum of calcium signal during defined time window: RFU=Fmax−Fmin. • ii. Calculate the percentage activation using following equation:\n[formula] • Iii. Calculate EC50 by fitting % activation against log of compound concentrations with Hill equation using XLfit.\nExemplary compounds of Formula I were evaluated functionally using FLIPR assay for their effect on h5-HT2A receptor under agonist mode."}, "[2]": {"test": "Liver microsomes stability, mouse", "protocol": "(§1) The objective of this study was to estimate in vitro metabolic stability of representative compounds of the application in pooled human and male mouse liver microsomes. The concentrations of parent compounds in reaction systems were evaluated by LC-MS/MS for estimating the stability in pooled human and male mouse liver microsomes. The in vitro intrinsic clearances of test compounds were determined as well.\n(§2) A master solution in the “Incubation Plate” containing phosphate buffer, ultra-pure H2O, MgCl2 solution and liver microsomes was made according to Table 3. The mixture was pre-warmed at 37° C. water bath for 5 minutes.\n(§3) 40 μL of 10 mM NADPH solution was added to each well. The final concentration of NADPH was 1 mM. The negative control samples were prepared by replacing NADPH with 40 μL of ultra-pure H2O. Samples were prepared in duplicate. Negative controls were prepared in singlet.\n(§4) The reaction was started with the addition of 4 μL of 200 μM test compounds or control compounds to each master solution to get the final concentration of 2 μM. This study was performed in duplicate.\n(§5) Aliquots of 50 μL were taken from the reaction solution at 0, 15, 30, 45 and 60 minutes. The reaction solutions were stopped by the addition of 4 volumes of cold methanol with IS (100 nM alprazolam, 200 nM imipramine, 200 nM labetalol and 2 μM ketoprofen). Samples were centrifuged at 3,220 g for 40 minutes. Aliquot of 90 μL of the supernatant was mixed with 90 μL of ultra-pure H2O and then was used for LC-MS/MS analysis.\n(§6) LC/MS analysis was performed for all samples from this study using a Shimadzu liquid chromatograph separation system equipped with degasser DGU-20A5R; solvent delivery unit LC-30AD; system controller SIL-30AC; column oven CTO-30A; CTC Analytics HTC PAL System. Mass spectrometric analysis was performed using a Triple Quad™ 5500 instrument.\n(§7) All calculations were carried out using Microsoft Excel. Peak areas were determined from extracted ion chromatograms. The slope value, k, was determined by linear regression of the natural logarithm of the remaining percentage of the parent drug vs. incubation time curve.\n(§8) The in vitro half-life (in vitro t1/2) was determined from the slope value:\n(§9) Conversion of the in vitro t1/2 (min) into the in vitro intrinsic clearance (in vitro CLint, in μL/min/mg proteins) was done using the following equation (mean of duplicate determinations): […]"}, "[3]": {"test": "Liver microsomes stability, rat"}, "[4]": {"test": "Liver microsomes stability, human", "conditions": "for Remaining Percentage: human", "protocol": "as §1, §2, §3, §4, §5, §6, §7, §8, §9"}, "[5]": {"test_system": "Male, C57BL/6J mice", "test": "Mouse head twitch", "format": "in vivo", "conditions": "for head twitches (mean): counted over 1 hr, male C57BL/6J mice", "protocol": "The effect of different doses of representative compounds of Formula I were evaluated on head-twitch response (HTR) and other behavioural responses as behavior-based models of psychedelic activity.\nMale, C57BL/6J mice (body weight range 20-30 g) were dosed with the appropriate dose of test article, and following a 1-minute pre-treatment time, placed in individual observation chambers. Animals were visually assessed for the incidence head twitches continuously over a 1 hr period. Head twitches were defined as a rapid jerk of the head which was not elicited by an external tactile stimulus (Come and Pickering, Psychopharmacologia, 1967, 11(1): 65-78). Each head twitch was individually counted by a trained observer, and the data was expressed as the mean±SEM of 6-10 mice per group. Mice were used in a single experiment only.\nThe head twitch response of exemplary compound II-1 (1-30 mg/kg SC) was compared to 5-MeO DMT and psilocybin (FIG. 1, Table 6)."}},
  "note": "Where “and” joins values, the source holds several entries; their conditions need not be identical. Equal values may be shown once.",
  "data": [
    {"smiles": "COc1cc2c(cc1OC)C(CCN(C)C)CN2", "note": "(stereo not shown) [Compound I-33, 2-(5,6-Dimethoxyindolin-3-yl)-N,N-dimethylethan-1-amine]", "values": [
      {"measurement": "RFU@10 μM", "setting": "[1]", "result": 286}
    ]},
    {"smiles": "CN(C)CCc1c[nH]c2ccccc12", "note": "[DMT, N,N-dimethyltryptamine, reference compound]", "values": [
      {"measurement": "RFU@10 μM", "setting": "[1]", "result": 381},
      {"measurement": "EC50", "setting": "[1]; EC50, 5-HT2A (FLIPR)", "result": 364, "unit": "nM"}
    ]},
    {"smiles": "O=C(O)Cc1ccccc1Nc1c(Cl)cccc1Cl", "note": "[Diclofenac]", "values": [
      {"measurement": "half-life at 2 μM", "setting": "[2]; male, mouse, microsomes", "result": 43.9, "unit": "min"},
      {"measurement": "microsomal CLint at 2 μM", "setting": "[2]; male, mouse, microsomes", "result": 31.6, "unit": "µL/min/mg"},
      {"measurement": "Predicted hepatic CL", "setting": "[2]; mouse liver microsomes", "result": 54.52, "unit": "mL/min/kg"},
      {"measurement": "Scaled-up CLint", "setting": "[2]; mouse liver microsomes", "result": 138.28, "unit": "mL/min/kg"},
      {"measurement": "Remaining Percentage", "setting": "[2]; mouse, With NADPH, 0 min", "result": 100.00, "unit": "%"},
      {"measurement": "Remaining Percentage", "setting": "[2]; mouse, With NADPH, 30 min", "result": 51.50, "unit": "%"},
      {"measurement": "Remaining Percentage", "setting": "[2]; mouse, With NADPH, 60 min", "result": 38.74, "unit": "%"},
      {"measurement": "Remaining Percentage", "setting": "[2]; mouse, Without NADPH, 0 min", "result": 100.00, "unit": "%"},
      {"measurement": "Remaining Percentage", "setting": "[2]; mouse, Without NADPH, 30 min", "result": 105.81, "unit": "%"},
      {"measurement": "Remaining Percentage", "setting": "[2]; mouse, Without NADPH, 60 min", "result": 102.49, "unit": "%"},
      {"measurement": "T1/2", "setting": "[3]; rat liver microsomes, 2 μM, 0.5 mg/mL", "result": 14.62, "unit": "min"},
      {"measurement": "Remaining Percentage", "setting": "[3]; rat, With NADPH, 0 min", "result": 100.00, "unit": "%"},
      {"measurement": "Remaining Percentage", "setting": "[3]; rat, With NADPH, 30 min", "result": 10.72, "unit": "%"},
      {"measurement": "Remaining Percentage", "setting": "[3]; rat, With NADPH, 60 min", "result": 5.82, "unit": "%"},
      {"measurement": "Remaining Percentage", "setting": "[3]; rat, Without NADPH, 0 min", "result": 100.00, "unit": "%"},
      {"measurement": "Remaining Percentage", "setting": "[3]; rat, Without NADPH, 30 min", "result": 100.00, "unit": "%"},
      {"measurement": "Remaining Percentage", "setting": "[3]; rat, Without NADPH, 60 min", "result": 96.90, "unit": "%"},
      {"measurement": "Predicted hepatic CL", "setting": "[3]; rat, liver microsomes", "result": 41.66, "unit": "mL/min/kg"},
      {"measurement": "microsomal CLint at 2 μM", "setting": "[3]; rat, liver microsomes", "result": 94.8, "unit": "µL/min/mg"},
      {"measurement": "Predicted hepatic CL", "setting": "[4]; human liver microsomes", "result": 18.43, "unit": "mL/min/kg"},
      {"measurement": "Remaining Percentage", "setting": "[4]; With NADPH, 0 min", "result": 100.00, "unit": "%"},
      {"measurement": "Remaining Percentage", "setting": "[4]; With NADPH, 30 min", "result": 4.80, "unit": "%"},
      {"measurement": "Remaining Percentage", "setting": "[4]; With NADPH, 60 min", "result": 1.80, "unit": "%"},
      {"measurement": "Remaining Percentage", "setting": "[4]; Without NADPH, 0 min", "result": 100.00, "unit": "%"},
      {"measurement": "Remaining Percentage", "setting": "[4]; Without NADPH, 30 min", "result": 91.86, "unit": "%"},
      {"measurement": "Remaining Percentage", "setting": "[4]; Without NADPH, 60 min", "result": 91.86, "unit": "%"}
    ]},
    {"smiles": "CN(C)CCc1c[nH]c2cccc(O)c12", "note": "[Psilocin, psilocin, reference compound]", "values": [
      {"measurement": "RFU@10 μM", "setting": "[1]", "result": "416 and 308"}
    ]},
    {"smiles": "CN(C)CCc1c[nH]c2cccc(OP(=O)(O)O)c12", "note": "[psilocybin]", "values": [
      {"measurement": "head twitches (mean)", "setting": "[5]; 0.1 mg/kg SC", "result": 4.8},
      {"measurement": "head twitches (mean)", "setting": "[5]; 0.3 mg/kg SC", "result": 6.3},
      {"measurement": "head twitches (mean)", "setting": "[5]; 1 mg/kg SC", "result": 16.3},
      {"measurement": "head twitches (mean)", "setting": "[5]; 3 mg/kg SC", "result": 7.8},
      {"measurement": "head twitches (mean)", "setting": "[5]; 10 mg/kg SC", "result": 5.5},
      {"measurement": "dose at which head twitch response reached a peak", "setting": "[5]; SC, 0.1-10 mg/kg tested", "result": 1, "unit": "mg/kg"},
      {"measurement": "other behavioural signs (locomotion, core body temperature, 5-HT syndrome) in words", "setting": "[5]; SC, psilocybin 3 and 10 mg/kg, 5-MeO DMT 3-30 mg/kg, II-1 0.3-30 mg/kg", "result": "decreased locomotion and decreased core body temperature"}
    ]}
  ]
}
